PubChem BioAssay AID248 (DTP/NCI, 2004)
“And” between values parts separate entries of the source, which are not always exact repeats. Identical values can stand only once. Inconclusive results and toxic doses are left out. Cut-off read from the data, not from the text of the source: active = T/C of 150% or more; inactive = T/C below 125%.

System: L1210 leukemia ip in BDF1 mice, survival T/C
Assay: NCI In Vivo Anticancer Drug Screen. Data for tumor model L1210 Leukemia (intraperitoneal) in B6D2F1 (BDF1) mice
Conditions: endpoint: mean survival time, higher = longer survival
Summary of the method: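 Survival endpoint. Drug-treated group vs vehicle group, expressed as T divided by C. Tumor passaged by transplantation.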

[1] = dose: 100.0 mg/kg/injection, schedule: Q01DX001 (ip), vehicle: saline with Tween-80
[2] = dose: 200.0 mg/kg/injection, schedule: Q01DX001 (ip), vehicle: saline with Tween-80
[3] = dose: 400.0 mg/kg/injection, schedule: Q01DX001 (ip), vehicle: saline with Tween-80
[4] = dose: 100.0 mg/kg/injection, schedule: Q04DX003 (ip), vehicle: Klucel (hydroxypropylcellulose) (HPC)
[5] = dose: 200.0 mg/kg/injection, schedule: Q04DX003 (ip), vehicle: Klucel (hydroxypropylcellulose) (HPC)
[6] = dose: 400.0 mg/kg/injection, schedule: Q04DX003 (ip), vehicle: Klucel (hydroxypropylcellulose) (HPC)
[7] = dose: 100.0 mg/kg/injection, schedule: Q01DX001 (ip), vehicle: other
[8] = dose: 100.0 mg/kg/injection, schedule: Q01DX009 (ip), vehicle: Klucel (hydroxypropylcellulose) (HPC)
[9] = dose: 200.0 mg/kg/injection, schedule: Q01DX009 (ip), vehicle: Klucel (hydroxypropylcellulose) (HPC)
[10] = dose: 100.0 mg/kg/injection, schedule: Q01DX009 (ip), vehicle: saline with Tween-80
[11] = dose: 100.0 mg/kg/injection, schedule: Q01DX001 (ip), vehicle: saline
[12] = dose: 200.0 mg/kg/injection, schedule: Q01DX001 (ip), vehicle: saline
[13] = dose: 400.0 mg/kg/injection, schedule: Q01DX001 (ip), vehicle: saline
[14] = dose: 200.0 mg/kg/injection, schedule: Q01DX009 (ip), vehicle: saline with Tween-80
[15] = dose: 400.0 mg/kg/injection, schedule: Q01DX009 (ip), vehicle: saline with Tween-80
[16] = dose: 100.0 mg/kg/injection, schedule: Q04DX003 (ip), vehicle: saline
[17] = dose: 200.0 mg/kg/injection, schedule: Q04DX003 (ip), vehicle: saline
[18] = dose: 50.0 mg/kg/injection, schedule: Q01DX001 (ip), vehicle: saline

Measured: T/C

CC(C)N(C)/N=N/N(C)C(C)C
inactive: [1] 101 % of control | [2] 103 % of control | [3] 117 % of control

OCC1OC(Sc2ccccc2)C(O)C(O)C1O (stereo unspecified)
inactive: [4] 111 % of control | [5] 105 % of control | [6] 111 % of control

CCOC(=O)c1[nH]cnc1/N=N/N(C1CCCCC1)C1CCCCC1
inactive: dose: 50.0 mg/kg/injection, schedule: Q01DX001 (ip), vehicle: other 94 % of control | [7] 97 % of control | dose: 200.0 mg/kg/injection, schedule: Q01DX001 (ip), vehicle: other 102 % of control | dose: 400.0 mg/kg/injection, schedule: Q01DX001 (ip), vehicle: other 92 % of control

O=C(O)Cc1ccc2[nH]c3c(c2c1)CCCC3
inactive: dose: 50.0 mg/kg/injection, schedule: Q01DX009 (ip), vehicle: Klucel (hydroxypropylcellulose) (HPC) 105 % of control | dose: 100.0 mg/kg/injection, schedule: Q01DX001 (ip), vehicle: steriod suspending solution 95 % of control | [8] 103 % of control | dose: 200.0 mg/kg/injection, schedule: Q01DX001 (ip), vehicle: steriod suspending solution 92 % of control | [9] 97 % of control

CC1CC(C)/C(=N/N(C)C)C(C(O)CC2CC(=O)NC(=O)C2)C1 (stereo unspecified)
inactive: dose: 77.8 mg/kg/injection, schedule: Q01DX Z (ip), vehicle: carboxymethylcellulose (CMC) 106 % of control | dose: 116.7 mg/kg/injection, schedule: Q01DX Z (ip), vehicle: carboxymethylcellulose (CMC) 105 % of control | dose: 262.5 mg/kg/injection, schedule: Q01DX Z (ip), vehicle: carboxymethylcellulose (CMC) 119 % of control

[Cl][Pd][Cl].[NH-]C(c1ccccc1)C([NH-])c1ccccc1 (stereo unspecified)
inactive: dose: 100.0 mg/kg/injection, schedule: Q04DX002 (ip), vehicle: Klucel (hydroxypropylcellulose) (HPC) 93 % of control and 97 % of control | dose: 200.0 mg/kg/injection, schedule: Q04DX002 (ip), vehicle: Klucel (hydroxypropylcellulose) (HPC) 90 % of control and 118 % of control | dose: 400.0 mg/kg/injection, schedule: Q04DX002 (ip), vehicle: Klucel (hydroxypropylcellulose) (HPC) 88 % of control and 97 % of control

CCCCNC(=O)NS(=O)(=O)c1ccc(C)cc1
inactive: dose: 100.0 mg/kg/injection, schedule: Q01DX001 (ip), vehicle: Klucel (hydroxypropylcellulose) (HPC) 96 % of control | dose: 200.0 mg/kg/injection, schedule: Q01DX001 (ip), vehicle: Klucel (hydroxypropylcellulose) (HPC) 96 % of control | dose: 400.0 mg/kg/injection, schedule: Q01DX001 (ip), vehicle: Klucel (hydroxypropylcellulose) (HPC) 89 % of control

CC1OC(OC2CCC3(C=O)C4CCC5(C)C(C6=CC(=O)OC6)CCC5(O)C4CCC3(O)C2)C(O)C(O)C1O (stereo unspecified)
inactive: dose: 3.0 mg/kg/injection, schedule: Q01DX001 (ip), vehicle: carboxymethylcellulose (CMC) 96 % of control | dose: 6.0 mg/kg/injection, schedule: Q01DX001 (ip), vehicle: carboxymethylcellulose (CMC) 98 % of control

CCCCCCCCCCCCCCCCCCCCCCCCCCCCCC
inactive: [4] 93 % of control | [5] 89 % of control | [6] 89 % of control

CCN(CC)CCCCCCn1c2ccccc2c2c(C)c3cnccc3c(C)c21
inactive: dose: 25.0 mg/kg/injection, schedule: Q01DX009 (ip), vehicle: saline with Tween-80 108 % of control | dose: 50.0 mg/kg/injection, schedule: Q01DX009 (ip), vehicle: saline with Tween-80 102 % of control | [10] 105 % of control

CC1C(C(N)=O)C(=O)OC1(C)C (stereo unspecified)
inactive: [11] 89 % of control | [12] 104 % of control | [13] 98 % of control

CCCCCCCCCCC1CCC2C(C1)CC1C3CCCCC3CC21 (stereo unspecified)
inactive: [11] 97 % of control | [12] 97 % of control | [13] 96 % of control

COc1cc([N+](=O)[O-])ccc1NC(=O)Nc1c(C)n(C)n(-c2ccccc2)c1=O
inactive: [8] 97 % of control | [9] 93 % of control | dose: 400.0 mg/kg/injection, schedule: Q01DX009 (ip), vehicle: Klucel (hydroxypropylcellulose) (HPC) 93 % of control

CSc1cccc(N2C(=O)C=CC2=O)c1
inactive: dose: 2.5 mg/kg/injection, schedule: Q04DX002 (ip), vehicle: Klucel (hydroxypropylcellulose) (HPC) 92 % of control | dose: 5.0 mg/kg/injection, schedule: Q04DX002 (ip), vehicle: Klucel (hydroxypropylcellulose) (HPC) 88 % of control | dose: 10.0 mg/kg/injection, schedule: Q04DX002 (ip), vehicle: Klucel (hydroxypropylcellulose) (HPC) 95 % of control and 97 % of control

CC(=O)C(C)(C)Cl
inactive: [10] 94 % of control | [14] 95 % of control | [15] 101 % of control

O=Cc1ccc([N+](=O)[O-])o1
inactive: dose: 10.0 mg/kg/injection, schedule: Q01DX001 (ip), vehicle: saline 94 % of control | dose: 12.5 mg/kg/injection, schedule: Q04DX002 (ip), vehicle: other 102 % of control | dose: 20.0 mg/kg/injection, schedule: Q01DX001 (ip), vehicle: saline 100 % of control | dose: 25.0 mg/kg/injection, schedule: Q04DX002 (ip), vehicle: other 97 % of control | dose: 40.0 mg/kg/injection, schedule: Q01DX001 (ip), vehicle: saline 94 % of control

CC/C(=N/OC(=O)NC)c1ccccc1
inactive: dose: 44.0 mg/kg/injection, schedule: Q01DX001 (ip), vehicle: other 94 % of control and 106 % of control | dose: 67.0 mg/kg/injection, schedule: Q01DX001 (ip), vehicle: other 93 % of control and 110 % of control | [7] 102 % of control and 110 % of control | dose: 150.0 mg/kg/injection, schedule: Q01DX001 (ip), vehicle: other 96 % of control and 108 % of control

CN(C)CC1CCCCN1 (stereo unspecified)
inactive: [16] 93 % of control | [17] 97 % of control

CCN(Cc1ccncc1)C(=O)C(O)(c1ccccc1)c1ccccc1
inactive: [1] 93 % of control | [2] 88 % of control | [3] 87 % of control

CC(C)CSC(C(O)C(O)C(O)CO)n1ccc(N)nc1=O (stereo unspecified)
inactive: dose: 100.0 mg/kg/injection, schedule: Q01DX005 (ip), vehicle: saline 90 % of control | dose: 200.0 mg/kg/injection, schedule: Q01DX005 (ip), vehicle: saline 98 % of control

CSc1nc(-c2cccs2)cc(C(F)(F)F)n1
inactive: dose: 100.0 mg/kg/injection, schedule: Q04DX003 (ip), vehicle: gum acacia 97 % of control | dose: 200.0 mg/kg/injection, schedule: Q04DX003 (ip), vehicle: gum acacia 100 % of control | dose: 400.0 mg/kg/injection, schedule: Q04DX003 (ip), vehicle: gum acacia 102 % of control

O=C(Cc1ccc([N+](=O)[O-])cc1)Nc1cccc(O)c1
inactive: [4] 97 % of control | [5] 108 % of control | [6] 101 % of control

CCC1([N+](=O)[O-])COP(=O)(OC(=O)c2ccc([N+](=O)[O-])cc2)OC1 (stereo unspecified)
inactive: [11] 91 % of control | [12] 91 % of control | [13] 92 % of control

N#CC[CH2][Sn]([CH2]CC#N)([CH2]CC#N)[CH2]CC#N
inactive: dose: 100.0 mg/kg/injection, schedule: Q04DX002 (ip), vehicle: saline with Tween-80 100 % of control | dose: 200.0 mg/kg/injection, schedule: Q04DX002 (ip), vehicle: saline with Tween-80 96 % of control | dose: 400.0 mg/kg/injection, schedule: Q04DX002 (ip), vehicle: saline with Tween-80 96 % of control

O=C(Nc1ccc(S(=O)(=O)O)cc1)c1ccc([N+](=O)[O-])cc1
inactive: [18] 92 % of control | [11] 103 % of control | dose: 100.0 mg/kg/injection, schedule: Q01DX009 (ip), vehicle: saline 95 % of control | [16] 100 % of control | [12] 97 % of control | dose: 200.0 mg/kg/injection, schedule: Q01DX009 (ip), vehicle: saline 102 % of control | [17] 91 % of control | [13] 97 % of control | dose: 400.0 mg/kg/injection, schedule: Q01DX009 (ip), vehicle: saline 100 % of control | dose: 400.0 mg/kg/injection, schedule: Q04DX003 (ip), vehicle: saline 100 % of control

CCC(C)N(C(C)=O)C(C)CC (stereo unspecified)
inactive: dose: 25.0 mg/kg/injection, schedule: Q01DX001 (ip), vehicle: saline 107 % of control | [18] 97 % of control | [11] 100 % of control

c1ccc2c3c([nH]c2c1)CCCC3
inactive: [8] 97 % of control | [4] 107 % of control | [9] 113 % of control | [5] 105 % of control | [6] 102 % of control

C=CCCCCCCCCC(=O)NCc1cccnc1
inactive: [10] 96 % of control | [14] 94 % of control | [15] 102 % of control
